{"source": "paper PMC12845078", "about": "(Pharmaceuticals, 2025)", "key": {"[1]": {"assay": "Pharmacokinetics of MT, 6-HMT and CBD in SD rats (i.v. and oral)", "details": "rats", "protocol": "The drugs were dissolved in the same manner as described previously, with an administration volume of 5 mL/kg for all groups. Blood samples were collected at the time points of pre-administration and 0.033 (only for the intravenous administration group), 0.083, 0.25, 0.5, 0.75, 1, 1.5, 2, 4, 6, 8, and 12 h post-administration.\n(§1) The column temperature was set at 40 °C."}, "[2]": {"assay": "Pharmacokinetics of MT and CBD in rats after pre-administration of ABT", "details": "both groups after ABT co-administration, all sampling time points; below lower limit of quantification", "procedure": "Twelve SD rats were randomly divided into two groups. Both groups were first given an intragastric administration of 1-aminobenzotriazole (ABT) at a dose of 200 mg/kg. […] The administration volume for all groups was 5 mL/kg. […] Approximately 50 μL of venous blood were collected into heparin sodium anticoagulant tubes and placed on ice. The sample processing and storage methods were the same as described previously.\nSubsequently, the resultant mixture was vortexed for 1 minute and centrifuged at 4 °C for 10 min at 18,800× g. […] The lowest limit of quantification (LLOQ) was established at 2 ng/mL.\nKromasil 100-5-C8 (2.1 × 50 mm) was selected for the separation of samples. The mobile phase consisted of solvent A (water with 0.1% formic acid and 5 mM ammonium acetate) and solvent B (methanol with 0.1% formic acid). […] The column temperature was set at 40 °C. The two eluents were 0.1% formic acid and 5 mM ammonium acetate in water (A) and 0.1% formic acid in methanol (B). […] The main mass spectrometry detection parameters were: dry gas 10 L/min, heated gas 10 L/min, collision gas 270 kPa, ion source temperature 300 °C, desolvation temperature 250 °C, and heating module temperature 400 °C.\nPharmacokinetic parameters: GraphPad Prism 10.1 software was utilized to draw the curves. Noncompartmental analysis was selected to calculate the major PK parameters, including clearance (CL), volume (V), half-life (t1/2), peak concentration (Cmax), and area under the curve (AUC), using WinNonlin 8.1."}, "[3]": {"assay": "Pharmacokinetics of MT, 6-HMT and CBD in beagles after oral administration", "details": "beagles, p.o.", "protocol": "Twelve male healthy adult beagles (weighing 10 ± 2 kg) were randomly divided into two groups. […] The drugs were dissolved in a physiological saline solution containing 5% castor oil, with an administration volume of 2 mL/kg. Blood samples were collected at the time points of pre-administration and 0.083, 0.25, 0.5, 0.75, 1, 1.5, 2, 4, 6, 8, and 12 h post-administration.\nas §1"}}, "note": "Marks after values point to notes of the source that are not given here."}
{"molecule": "COc1cc2c(CCNC(C)=O)c[nH]c2cc1O", "note": "[6-HMT, 6-Hydroxymelatonin]", "values": [{"measurement": "AUC(0–t)", "setting": "[1]; i.v., MT + CBD (1 + 1) mg/kg", "value": "33.63 (5.10) h × ng/mL"}, {"measurement": "MRT(0–t)", "setting": "[1]; i.v., MT + CBD (1 + 1) mg/kg", "value": "0.38 (0.06) h"}, {"measurement": "t1/2", "setting": "[1]; i.v., MT + CBD (1 + 1) mg/kg", "value": "0.28 (0.04) h"}, {"measurement": "AUC(0–1h)", "setting": "[1]; p.o., MT + CBD (5 + 5) mg/kg", "value": "77.02 (26.81) h × ng/mL"}, {"measurement": "AUC(0–t)", "setting": "[1]; p.o., MT + CBD (5 + 5) mg/kg", "value": "110.2 (39.21) h × ng/mL"}, {"measurement": "Cmax", "setting": "[1]; p.o., MT + CBD (5 + 5) mg/kg", "value": "125.1 (33.41) ng/mL"}, {"measurement": "MRT(0–t)", "setting": "[1]; p.o., MT + CBD (5 + 5) mg/kg", "value": "0.88 (0.11) h"}, {"measurement": "Tmax", "setting": "[1]; p.o., MT + CBD (5 + 5) mg/kg", "value": "0.33 (0.13) h"}, {"measurement": "t1/2", "setting": "[1]; p.o., MT + CBD (5 + 5) mg/kg", "value": "1.72 (1.48) h"}, {"measurement": "AUC(0–1h)", "setting": "[1]; p.o., MT + CBD (5 + 20) mg/kg", "value": "48.98 (8.27) ** h × ng/mL"}, {"measurement": "AUC(0–t)", "setting": "[1]; p.o., MT + CBD (5 + 20) mg/kg", "value": "123.2 (15.77) h × ng/mL"}, {"measurement": "Cmax", "setting": "[1]; p.o., MT + CBD (5 + 20) mg/kg", "value": "64.17 (10.40) ** ng/mL"}, {"measurement": "MRT(0–t)", "setting": "[1]; p.o., MT + CBD (5 + 20) mg/kg", "value": "2.37 (0.38) ** h"}, {"measurement": "Tmax", "setting": "[1]; p.o., MT + CBD (5 + 20) mg/kg", "value": "0.33 (0.20) h"}, {"measurement": "t1/2", "setting": "[1]; p.o., MT + CBD (5 + 20) mg/kg", "value": "3.41 (1.90) h"}, {"measurement": "AUC(0–1h)", "setting": "[1]; p.o., MT + Vehicle 5 mg/kg", "value": "90.04 (26.46) h × ng/mL"}, {"measurement": "AUC(0–t)", "setting": "[1]; p.o., MT + Vehicle 5 mg/kg", "value": "125.2 (21.64) h × ng/mL"}, {"measurement": "Cmax", "setting": "[1]; p.o., MT + Vehicle 5 mg/kg", "value": "145.6 (40.82) ng/mL"}, {"measurement": "MRT(0–t)", "setting": "[1]; p.o., MT + Vehicle 5 mg/kg", "value": "1.41 (0.59) h"}, {"measurement": "Tmax", "setting": "[1]; p.o., MT + Vehicle 5 mg/kg", "value": "0.25 (0) h"}, {"measurement": "t1/2", "setting": "[1]; p.o., MT + Vehicle 5 mg/kg", "value": "1.56 (0.90) h"}, {"measurement": "plasma concentration", "setting": "[2]", "value": "< 2", "unit": "ng/mL"}, {"measurement": "AUC(0–t)", "setting": "[3]; MT + CBD (3 + 3) mg/kg", "value": "192.4 (72.83) h × ng/mL"}, {"measurement": "AUC(0–∞)", "setting": "[3]; MT + CBD (3 + 3) mg/kg", "value": "245.7 (69.0) h × ng/mL"}, {"measurement": "Cmax", "setting": "[3]; MT + CBD (3 + 3) mg/kg", "value": "62.9 (18.18) ng/mL"}, {"measurement": "MRT(0–t)", "setting": "[3]; MT + CBD (3 + 3) mg/kg", "value": "2.94 (0.83) h"}, {"measurement": "Tmax", "setting": "[3]; MT + CBD (3 + 3) mg/kg", "value": "0.58 (0.20) h"}, {"measurement": "t1/2", "setting": "[3]; MT + CBD (3 + 3) mg/kg", "value": "4.11 (1.69) h"}, {"measurement": "ratio of AUC(0–t),6-HMT to AUC(0–t),MT with CBD, as percent of MT alone", "setting": "[3]; MT + CBD (3 + 3) mg/kg vs MT 3 mg/kg", "value": 26, "unit": "%"}, {"measurement": "AUC(0–t)", "setting": "[3]; MT + Vehicle 3 mg/kg", "value": "179.7 (36.31) h × ng/mL"}, {"measurement": "AUC(0–∞)", "setting": "[3]; MT + Vehicle 3 mg/kg", "value": "202.1 (46.02) h × ng/mL"}, {"measurement": "Cmax", "setting": "[3]; MT + Vehicle 3 mg/kg", "value": "74.80 (10.94) ng/mL"}, {"measurement": "MRT(0–t)", "setting": "[3]; MT + Vehicle 3 mg/kg", "value": "3.60 (0.81) h"}, {"measurement": "Tmax", "setting": "[3]; MT + Vehicle 3 mg/kg", "value": "0.29 (0.10) h"}, {"measurement": "t1/2", "setting": "[3]; MT + Vehicle 3 mg/kg", "value": "3.33 (1.11) h"}]}
